# From article doi:10.1101/2023.03.24.534094v2 (biorxiv, 2023)
# Where two headings read alike, the source gives them in different places.
# Experiments:
# Test in all cases: biochemical
# DAPK3 = DAPK3 (Homo sapiens, UniProt O43293)
# DCAMKL1 = biological target: T1, DCAMKL1 (Homo sapiens, UniProt O15075)
# T1 sequence (O15075 1-740): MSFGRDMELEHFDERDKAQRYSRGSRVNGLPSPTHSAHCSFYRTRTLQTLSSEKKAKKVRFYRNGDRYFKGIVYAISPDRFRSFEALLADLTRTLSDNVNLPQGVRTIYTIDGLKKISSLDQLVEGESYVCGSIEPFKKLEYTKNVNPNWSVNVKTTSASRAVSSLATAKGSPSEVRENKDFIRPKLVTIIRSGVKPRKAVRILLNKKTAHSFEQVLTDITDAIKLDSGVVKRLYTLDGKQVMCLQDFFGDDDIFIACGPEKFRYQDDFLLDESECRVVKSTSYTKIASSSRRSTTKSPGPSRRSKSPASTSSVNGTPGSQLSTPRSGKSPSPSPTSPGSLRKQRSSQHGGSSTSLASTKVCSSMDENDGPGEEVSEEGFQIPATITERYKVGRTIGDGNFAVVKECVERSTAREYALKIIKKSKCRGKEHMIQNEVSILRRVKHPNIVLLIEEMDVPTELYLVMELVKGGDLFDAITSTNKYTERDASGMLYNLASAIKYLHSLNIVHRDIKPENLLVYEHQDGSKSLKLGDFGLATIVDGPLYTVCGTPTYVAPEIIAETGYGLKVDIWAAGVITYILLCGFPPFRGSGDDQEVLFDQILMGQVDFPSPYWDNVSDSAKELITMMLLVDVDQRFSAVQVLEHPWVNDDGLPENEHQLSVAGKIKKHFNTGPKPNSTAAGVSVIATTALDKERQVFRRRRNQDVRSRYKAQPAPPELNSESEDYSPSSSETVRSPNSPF
# CaMK2d = CaMK2d (Homo sapiens, UniProt Q13557)
# Sequence of CaMK2d (Q13557 whole entry): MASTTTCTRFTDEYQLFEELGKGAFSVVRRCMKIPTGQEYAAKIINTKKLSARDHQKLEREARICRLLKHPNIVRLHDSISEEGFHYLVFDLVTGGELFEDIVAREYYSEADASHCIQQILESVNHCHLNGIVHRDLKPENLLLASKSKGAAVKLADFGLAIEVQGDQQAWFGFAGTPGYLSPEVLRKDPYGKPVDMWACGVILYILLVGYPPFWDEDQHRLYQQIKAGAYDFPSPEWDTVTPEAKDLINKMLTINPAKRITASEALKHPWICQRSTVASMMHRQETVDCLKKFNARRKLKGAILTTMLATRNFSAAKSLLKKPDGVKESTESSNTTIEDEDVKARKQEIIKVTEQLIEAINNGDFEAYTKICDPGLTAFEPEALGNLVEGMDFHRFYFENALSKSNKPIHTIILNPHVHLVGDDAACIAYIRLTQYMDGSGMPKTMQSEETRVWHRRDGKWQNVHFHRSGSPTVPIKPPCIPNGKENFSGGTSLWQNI
# DRAK1 = biological target: T2, DRAK1 (Homo sapiens, UniProt Q9UEE5)
# T2 sequence (Q9UEE5 1-414): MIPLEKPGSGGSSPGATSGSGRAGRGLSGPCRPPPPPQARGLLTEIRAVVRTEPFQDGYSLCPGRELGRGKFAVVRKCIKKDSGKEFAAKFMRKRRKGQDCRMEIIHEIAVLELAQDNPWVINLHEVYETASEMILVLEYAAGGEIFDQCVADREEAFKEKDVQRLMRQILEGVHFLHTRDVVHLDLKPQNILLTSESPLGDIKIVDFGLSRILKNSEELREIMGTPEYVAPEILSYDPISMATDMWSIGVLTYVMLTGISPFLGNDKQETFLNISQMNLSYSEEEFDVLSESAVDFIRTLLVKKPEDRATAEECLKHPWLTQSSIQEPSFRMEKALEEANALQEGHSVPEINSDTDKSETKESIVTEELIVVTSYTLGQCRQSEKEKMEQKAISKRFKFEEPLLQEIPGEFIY
# EphA7 = EphA7 (Homo sapiens, UniProt Q15375)
# Sequence of EphA7 (Q15375 whole entry): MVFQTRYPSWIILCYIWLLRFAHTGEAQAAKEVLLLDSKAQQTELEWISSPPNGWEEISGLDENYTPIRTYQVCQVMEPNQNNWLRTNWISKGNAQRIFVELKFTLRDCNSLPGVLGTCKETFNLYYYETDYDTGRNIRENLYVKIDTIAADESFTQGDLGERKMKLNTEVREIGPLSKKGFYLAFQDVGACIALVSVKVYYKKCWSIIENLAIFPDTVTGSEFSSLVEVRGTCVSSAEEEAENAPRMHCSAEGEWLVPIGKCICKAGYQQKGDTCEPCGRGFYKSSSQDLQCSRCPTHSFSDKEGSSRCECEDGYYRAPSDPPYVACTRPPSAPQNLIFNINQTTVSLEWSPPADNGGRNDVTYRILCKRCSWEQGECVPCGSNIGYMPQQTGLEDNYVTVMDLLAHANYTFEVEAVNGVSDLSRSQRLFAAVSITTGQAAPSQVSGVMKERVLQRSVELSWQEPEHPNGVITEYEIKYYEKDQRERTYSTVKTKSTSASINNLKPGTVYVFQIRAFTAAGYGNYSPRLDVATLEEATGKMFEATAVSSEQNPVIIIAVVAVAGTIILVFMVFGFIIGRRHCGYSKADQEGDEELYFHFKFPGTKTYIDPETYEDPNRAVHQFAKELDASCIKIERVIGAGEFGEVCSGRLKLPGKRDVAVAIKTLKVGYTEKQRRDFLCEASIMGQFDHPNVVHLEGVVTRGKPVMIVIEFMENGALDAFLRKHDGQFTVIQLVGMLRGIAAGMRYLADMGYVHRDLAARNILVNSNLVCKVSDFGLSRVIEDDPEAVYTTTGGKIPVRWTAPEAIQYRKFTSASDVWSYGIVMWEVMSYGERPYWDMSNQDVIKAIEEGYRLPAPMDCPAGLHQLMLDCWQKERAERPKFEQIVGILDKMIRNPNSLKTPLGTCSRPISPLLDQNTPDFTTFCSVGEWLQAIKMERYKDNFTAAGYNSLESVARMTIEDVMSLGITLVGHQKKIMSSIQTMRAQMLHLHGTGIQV
# CASK = biological target: T3, CASK (Homo sapiens, UniProt O14936)
# T3 sequence (O14936 1-926): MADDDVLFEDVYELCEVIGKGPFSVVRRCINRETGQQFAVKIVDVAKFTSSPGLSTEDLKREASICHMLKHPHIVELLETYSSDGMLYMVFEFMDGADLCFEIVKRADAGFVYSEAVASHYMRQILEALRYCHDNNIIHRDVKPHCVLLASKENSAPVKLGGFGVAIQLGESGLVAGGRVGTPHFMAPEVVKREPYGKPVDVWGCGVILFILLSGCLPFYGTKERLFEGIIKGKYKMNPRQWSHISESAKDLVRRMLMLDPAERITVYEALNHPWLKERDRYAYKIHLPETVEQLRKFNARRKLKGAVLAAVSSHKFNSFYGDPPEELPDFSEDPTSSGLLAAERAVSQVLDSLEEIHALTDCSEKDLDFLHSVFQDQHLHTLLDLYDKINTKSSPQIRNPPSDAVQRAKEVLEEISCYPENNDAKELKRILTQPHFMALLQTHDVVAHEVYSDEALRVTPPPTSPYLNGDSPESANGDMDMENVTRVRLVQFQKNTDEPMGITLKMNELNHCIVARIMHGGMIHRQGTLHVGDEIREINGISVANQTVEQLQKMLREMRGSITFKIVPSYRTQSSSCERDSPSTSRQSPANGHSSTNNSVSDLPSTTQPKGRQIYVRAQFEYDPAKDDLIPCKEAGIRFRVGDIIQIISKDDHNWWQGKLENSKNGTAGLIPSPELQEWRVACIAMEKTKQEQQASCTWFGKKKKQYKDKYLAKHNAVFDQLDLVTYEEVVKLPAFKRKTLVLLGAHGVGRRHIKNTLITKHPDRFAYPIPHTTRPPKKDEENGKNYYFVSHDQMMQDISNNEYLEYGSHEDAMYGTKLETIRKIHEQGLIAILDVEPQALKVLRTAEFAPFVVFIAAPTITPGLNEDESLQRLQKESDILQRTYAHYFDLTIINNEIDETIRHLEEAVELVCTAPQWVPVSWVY
# CDK2 = CDK2 (Homo sapiens, UniProt P24941)
# STLK3 = STLK3 (Homo sapiens, UniProt Q9UEW8)
# Erk2 = Erk2 (Homo sapiens, UniProt P28482)
# Sequence of Erk2 (P28482 whole entry): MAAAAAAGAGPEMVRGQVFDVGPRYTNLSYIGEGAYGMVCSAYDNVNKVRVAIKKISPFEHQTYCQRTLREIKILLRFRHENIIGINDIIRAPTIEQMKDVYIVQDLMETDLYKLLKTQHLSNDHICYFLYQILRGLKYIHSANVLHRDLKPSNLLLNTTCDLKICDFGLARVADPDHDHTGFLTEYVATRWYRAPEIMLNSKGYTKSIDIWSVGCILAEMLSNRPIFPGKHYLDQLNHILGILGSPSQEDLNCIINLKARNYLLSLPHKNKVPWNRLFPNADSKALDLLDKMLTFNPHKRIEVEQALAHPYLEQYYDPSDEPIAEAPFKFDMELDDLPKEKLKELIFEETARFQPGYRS
# PAK4 = PAK4 (Homo sapiens, UniProt O96013)
# Sequence of PAK4 (O96013 whole entry): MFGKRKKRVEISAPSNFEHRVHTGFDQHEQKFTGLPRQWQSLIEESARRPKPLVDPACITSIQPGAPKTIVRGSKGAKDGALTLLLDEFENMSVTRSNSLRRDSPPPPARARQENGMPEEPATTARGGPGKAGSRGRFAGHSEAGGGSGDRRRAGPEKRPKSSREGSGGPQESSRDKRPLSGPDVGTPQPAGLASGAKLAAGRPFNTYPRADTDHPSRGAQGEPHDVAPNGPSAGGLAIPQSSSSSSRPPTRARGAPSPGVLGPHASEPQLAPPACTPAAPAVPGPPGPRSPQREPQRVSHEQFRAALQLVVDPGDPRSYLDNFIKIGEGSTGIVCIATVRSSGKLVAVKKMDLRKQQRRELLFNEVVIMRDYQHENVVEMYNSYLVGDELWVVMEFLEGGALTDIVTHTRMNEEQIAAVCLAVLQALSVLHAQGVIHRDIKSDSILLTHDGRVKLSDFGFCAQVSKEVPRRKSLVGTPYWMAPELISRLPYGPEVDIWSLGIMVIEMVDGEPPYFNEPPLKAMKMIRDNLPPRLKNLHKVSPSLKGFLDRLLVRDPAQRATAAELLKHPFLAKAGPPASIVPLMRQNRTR
# Sequence of DAPK3 (O43293 whole entry): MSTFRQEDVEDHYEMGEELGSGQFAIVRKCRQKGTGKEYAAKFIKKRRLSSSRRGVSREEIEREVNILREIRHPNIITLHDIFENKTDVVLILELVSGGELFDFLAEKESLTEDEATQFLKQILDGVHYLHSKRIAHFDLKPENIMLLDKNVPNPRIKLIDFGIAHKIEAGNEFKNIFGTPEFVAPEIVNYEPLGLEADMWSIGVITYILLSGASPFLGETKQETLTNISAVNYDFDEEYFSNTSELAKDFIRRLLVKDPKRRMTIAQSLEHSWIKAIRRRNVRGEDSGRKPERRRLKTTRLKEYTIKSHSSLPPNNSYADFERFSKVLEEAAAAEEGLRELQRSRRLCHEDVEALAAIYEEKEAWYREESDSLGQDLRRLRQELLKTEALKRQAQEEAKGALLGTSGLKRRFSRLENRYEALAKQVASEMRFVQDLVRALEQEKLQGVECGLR
smiles,measurement,setting,value
"CNc1ncc2cc(-c3ccc(-c4cccc(C)n4)cc3Cl)c(=O)n(CC3OCC(N)CO3)c2n1 (stereo not drawn) [compound 2, G-5555]",dTm G-5555 (2),"DAPK3; 10 µM, binder",0.5 °C
same,dTm G-5555 (2),"DCAMKL1; 10 µM, binder",0.3 °C
same,dTm G-5555 (2),"CaMK2d; 10 µM, binder",-0.1 °C
same,dTm G-5555 (2),"DRAK1; 10 µM, binder",-0.7 °C
same,dTm G-5555 (2),"EphA7; 10 µM, binder",4.1 °C
same,dTm G-5555 (2),"CASK; 10 µM, binder",-0.8 °C
same,dTm G-5555 (2),"CDK2; 10 µM, binder",0.5 °C
same,dTm G-5555 (2),"STLK3; 10 µM, binder",0.6 °C
same,dTm G-5555 (2),"Erk2; 10 µM, binder",1.4 °C
same,dTm G-5555 (2),"PAK4; 10 µM, binder",3.5 °C
"CNc1ncc2cc(-c3ccccc3Cl)c(=O)n(CCCCN)c2n1 [compound 4, 8-(4-Aminobutyl)-6-(2-chlorophenyl)-2-(methylamino)pyrido[2,3-d]pyrimidin-7(8H)-one]",ΔTm at 10 µM,DCAMKL1; read-out: dTm MR21 (4),0.2 °C
same,ΔTm at 10 µM,CaMK2d; read-out: dTm MR21 (4),0 °C
same,ΔTm at 10 µM,DRAK1; read-out: dTm MR21 (4),0.1 °C
same,ΔTm at 10 µM,EphA7; read-out: dTm MR21 (4),1.8 °C
same,ΔTm at 10 µM,CASK; read-out: dTm MR21 (4),0 °C
same,ΔTm at 10 µM,CDK2; read-out: dTm MR21 (4),0.4 °C
same,ΔTm at 10 µM,STLK3; read-out: dTm MR21 (4),-1.1 °C
same,ΔTm at 10 µM,Erk2; read-out: dTm MR21 (4),1 °C
same,ΔTm at 10 µM,PAK4; read-out: dTm MR21 (4),2.8 °C
"CNc1ncc2cc(-c3cc(F)ccc3F)c(=O)n(CCCCN)c2n1 [compound 5, 8-(4-Aminobutyl)-6-(2,5-difluorophenyl)-2-(methylamino)pyrido[2,3-d]pyrimidin-7(8H)-one]",ΔTm at 10 µM,DAPK3; read-out: dTm MR22 (5),0.5 °C
same,ΔTm at 10 µM,CaMK2d; read-out: dTm MR22 (5),-0.6 °C
same,ΔTm at 10 µM,DRAK1; read-out: dTm MR22 (5),-0.7 °C
same,ΔTm at 10 µM,EphA7; read-out: dTm MR22 (5),-1.6 °C
same,ΔTm at 10 µM,CASK; read-out: dTm MR22 (5),-0.4 °C
same,ΔTm at 10 µM,CDK2; read-out: dTm MR22 (5),0.7 °C
same,ΔTm at 10 µM,STLK3; read-out: dTm MR22 (5),2.1 °C
same,ΔTm at 10 µM,Erk2; read-out: dTm MR22 (5),-3.7 °C
same,ΔTm at 10 µM,PAK4; read-out: dTm MR22 (5),0.2 °C
"CNc1ncc2cc(-c3cc(Br)ccc3Cl)c(=O)n(CCCCN)c2n1 [compound 6, 8-(4-Aminobutyl)-6-(5-bromo-2-chlorophenyl)-2-(methylamino)pyrido[2,3-d]pyrimidin-7(8H)-one]",ΔTm at 10 µM,DAPK3; read-out: dTm 6,-0.2 °C
same,ΔTm at 10 µM,DCAMKL1; read-out: dTm 6,-0.5 °C
same,ΔTm at 10 µM,CaMK2d; read-out: dTm 6,0 °C
same,ΔTm at 10 µM,DRAK1; read-out: dTm 6,-0.1 °C
same,ΔTm at 10 µM,EphA7; read-out: dTm 6,2.7 °C
same,ΔTm at 10 µM,CASK; read-out: dTm 6,-0.3 °C
same,ΔTm at 10 µM,CDK2; read-out: dTm 6,0.5 °C
same,ΔTm at 10 µM,STLK3; read-out: dTm 6,0.2 °C
same,ΔTm at 10 µM,Erk2; read-out: dTm 6,0 °C
same,ΔTm at 10 µM,PAK4; read-out: dTm 6,1.1 °C
"CNc1ncc2cc(-c3cc(Br)ccc3Cl)c(=O)n(C[C@H]3OC[C@H](N)CO3)c2n1 [compound 7, 8-(((2r,5r)-5-Amino-1,3-dioxan-2-yl)methyl)-6-(5-bromo-2-chlorophenyl)-2-(methylamino)pyrido[2,3-d]pyrimidin-7(8H)-one]",ΔTm at 10 µM,DAPK3; read-out: dTm 7,-0.4 °C
same,ΔTm at 10 µM,DCAMKL1; read-out: dTm 7,1 °C
same,ΔTm at 10 µM,CaMK2d; read-out: dTm 7,0.4 °C
same,ΔTm at 10 µM,DRAK1; read-out: dTm 7,0.6 °C
same,ΔTm at 10 µM,EphA7; read-out: dTm 7,-0.5 °C
same,ΔTm at 10 µM,CASK; read-out: dTm 7,-0.1 °C
same,ΔTm at 10 µM,CDK2; read-out: dTm 7,0.3 °C
same,ΔTm at 10 µM,STLK3; read-out: dTm 7,0 °C
same,ΔTm at 10 µM,Erk2; read-out: dTm 7,0 °C
same,ΔTm at 10 µM,PAK4; read-out: dTm 7,0.5 °C
